The record followed here is patent US12378224B2 (Dong-A Socio Holdings Co., Ltd., priority 2016, dated 2025).

A value given as a limit tells only on which side of the number the result lay.

What is called IC50 is the concentration that inhibits the measured activity by half. A higher IC50 goes with weaker potency.

Assay [1] has as its target human c-MER catalytic domain (Homo sapiens (Human), UniProt Q12866). In words: TR-FRET Kinase Activity Biochemical Assay (LanthaScreen). The conditions noted are these: 10 uM ATP, 1 hour, kinase not given. The text has this:
For the SAR (structure-activity relationship) and compound screening, LanthaScreen™ TR-FRET (Time-Resolved fluorescence energy transfer) assay was employed using the phospho-tyrosine specific Terbium (Tb)-labelded antibody with a fluorescein labeled poly-GT (glutamate-tyrosine) as a substrate. Upon excitation at 340 nm by UV, the energy from Tb donor of the antibody is transferred to the fluorescein of the phosphorylated poly GT substrate, and fluorescein emits light at 520 nm. The ratio between the intensity of […] was used to quantify the level of kinase activity. The recombinant proteins of human c-MER and AXL catalytic domains, Fluorescein-labeled poly-GT substrate, Tb-labeled anti-phosphorylated tyrosine antibodies, the kinase assay buffer, and 0.5M EDTA solution were purchased (Life technologies, USA). The TR-FRET assays were carried out in the white low volume 384-well plate (Corning, USA). […] 10 mM EDTA was added to terminate the enzyme reaction, and the level of phosphorylation of poly-GT substrate was determined following 30 min incubation with 2 nM Tb-labeled antibody. The fluorescence intensity was measured with Envision™ plate reader (PerkinElmer, USA).
A general note: In TR-FRET formats the signal depends on donor and acceptor labels being close together.

For the next assay, the target named is human MER (528-end) (Homo sapiens (Human), UniProt Q12866). In words: HTRF Kinase Activity Biochemical Assay (KinEASE-TK). The conditions noted are these: 10 uM ATP. The essentials:
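Activity read-out is the HTRF ratio (665 nm over 620 nm emission, ×10,000; excitation 340 nm) after 1 h detection with 0.375 nM Eu3+-cryptate anti-TK antibody plus 0.062 uM SA-XL665. Preceding kinase step: human MER (528-end), biotinylated TK substrate, 1 h, room temperature.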

human c-MER catalytic domain, sequence (Q12866 587-858): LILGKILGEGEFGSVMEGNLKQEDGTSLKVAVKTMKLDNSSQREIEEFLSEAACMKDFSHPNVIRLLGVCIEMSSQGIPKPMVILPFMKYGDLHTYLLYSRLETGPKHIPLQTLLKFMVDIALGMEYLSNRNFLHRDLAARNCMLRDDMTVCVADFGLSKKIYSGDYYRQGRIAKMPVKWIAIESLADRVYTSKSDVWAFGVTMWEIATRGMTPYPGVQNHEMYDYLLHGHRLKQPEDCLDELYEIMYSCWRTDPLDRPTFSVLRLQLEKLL
human MER (528-end), sequence (Q12866 528-999 limits assumed): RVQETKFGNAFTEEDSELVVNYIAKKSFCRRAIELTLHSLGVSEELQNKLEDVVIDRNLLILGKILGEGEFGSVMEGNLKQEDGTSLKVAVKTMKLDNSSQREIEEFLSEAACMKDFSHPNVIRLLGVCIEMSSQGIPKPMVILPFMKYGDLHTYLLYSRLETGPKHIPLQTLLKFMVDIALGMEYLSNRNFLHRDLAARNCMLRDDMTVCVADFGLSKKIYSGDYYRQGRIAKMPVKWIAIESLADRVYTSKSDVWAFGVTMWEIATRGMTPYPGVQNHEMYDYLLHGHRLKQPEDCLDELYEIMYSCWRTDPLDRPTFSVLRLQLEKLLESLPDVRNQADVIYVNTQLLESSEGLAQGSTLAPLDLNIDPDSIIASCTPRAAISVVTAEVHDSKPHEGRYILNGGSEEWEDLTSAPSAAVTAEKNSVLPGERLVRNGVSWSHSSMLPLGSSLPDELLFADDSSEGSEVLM

In assay [1], `Cn1cc(-c2cnc(N)c(C(=O)N[C@@H]3CCN(C(=O)Nc4ccccc4)C3)c2)cn1` [Example 1, (R)-2-amino-5-(1-methyl-1H-pyrazol-4-yl)-N-(1-(phenylcarbamoyl)pyrrolidin-3-yl)nicotinamide] came in with an IC50 of 0.1 to 1 µM. On the same count and under the same terms, the result for `Nc1ncc(-c2ccc(C(=O)N3CCOCC3)cc2)cc1C(=O)N[C@@H]1CCN(C(=O)Nc2cc(Cl)cc(Cl)c2)C1` [Example 9, (R)-2-amino-N-(1-((3,5-dichlorophenyl)carbamoyl)pyrrolidin-3-yl)-5-(4-(morpholine-4-carbonyl)phenyl)nicotinamide] reads 0.01 to 0.1 µM. On the same count and under the same terms, the result for `Nc1ncc(-c2ccc(CO)cc2)cc1C(=O)N[C@@H]1CCN(C(=O)Nc2cc(Cl)cc(Cl)c2)C1` [Example 10, (R)-2-amino-N-(1-((3,5-dichlorophenyl)carbamoyl)pyrrolidin-3-yl)-5-(4-(hydroxymethyl)phenyl)nicotinamide] reads 0.01 to 0.1 µM. Regarding `Cn1cc(-c2cnc(N)c(C(=O)N[C@@H]3CCN(C(=O)Nc4cccnc4)C3)c2)cn1` [Example 13, (R)-2-amino-5-(1-methyl-1H-pyrazol-4-yl)-N-(1-(pyridin-3-ylcarbamoyl)pyrrolidin-3-yl)nicotinamide], in assay [1], the IC50 is greater than 1 µM. On to `Cn1cc(-c2cnc(N)c(C(=O)N[C@@H]3CCN(C(=O)Nc4cccc(Cl)c4Cl)C3)c2)cn1` [Example 15, (R)-2-amino-N-(1-((2,3-dichlorophenyl)carbamoyl)pyrrolidin-3-yl)-5-(1-methyl-1H-pyrazol-4-yl)nicotinamide], for which, in assay [1], the IC50 lay in the range of 0.01 to 0.1 µM. Still for that read-out and setting: under `CCc1ccccc1NC(=O)N1CC[C@@H](NC(=O)c2cc(-c3cnn(C)c3)cnc2N)C1` [Example 20, (R)-2-amino-N-(1-((2-ethylphenyl)carbamoyl)pyrrolidin-3-yl)-5-(1-methyl-1H-pyrazol-4-yl)nicotinamide] stands greater than 1 µM. Turning to `Cn1cc(-c2cnc(N)c(C(=O)N[C@@H]3CCN(C(=O)c4ccc(F)cc4Cl)C3)c2)cn1` [Example 716, (R)-2-amino-N-(1-(2-chloro-4-fluorobenzoyl)pyrrolidin-3-yl)-5-(1-methyl-1H-pyrazol-4-yl)nicotinamide], on human MER (528-end), the IC50 is greater than 1 µM. The same measure, in the same setting: under `Cn1cc(-c2cnc(N)c(C(=O)N[C@@H]3CCN(C(=O)c4ccc(-c5ccc(C#N)cc5)cc4)C3)c2)cn1` [Example 726, (R)-2-amino-N-(1-(4′-cyano-[1,1′-biphenyl]-4-carbonyl)pyrrolidin-3-yl)-5-(1-methyl-1H-pyrazol-4-yl)nicotinamide] stands 0.1 to 1 µM; under `Cn1cc(-c2cnc(N)c(C(=O)N[C@@H]3CCN(C(=O)c4ccc(-c5cccc(CN)c5)cc4)C3)c2)cn1` [Example 727, (R)-2-amino-N-(1-(3′-(aminomethyl)-[1,1′-biphenyl]-4-carbonyl)pyrrolidin-3-yl)-5-(1-methyl-1H-pyrazol-4-yl)nicotinamide], 0.01 to 0.1 µM; under `Cn1cc(-c2cnc(N)c(C(=O)N[C@@H]3CCN(C(=O)c4ccc(-c5ccccc5)cc4N)C3)c2)cn1` [Example 728, (R)-2-amino-N-(1-(3-amino-[1,1′-biphenyl]-4-carbonyl)pyrrolidin-3-yl)-5-(1-methyl-1H-pyrazol-4-yl)nicotinamide], 0.1 to 1 µM. Turning to `Cn1cc(-c2cnc(N)c(C(=O)N[C@@H]3CCN(C(=O)/C=C/c4ccc(-c5ccccc5)cc4)C3)c2)cn1` [Example 730, (R,E)-N-(1-(3-([1,1′-biphenyl]-4-yl)acryloyl)pyrrolidin-3-yl)-2-amino-5-(1-methyl-1H-pyrazol-4-yl)nicotinamide], the IC50 against human MER (528-end) was in the range of 0.1 to 1 µM. On the same count and under the same terms, under `Cn1cc(-c2cnc(N)c(C(=O)N[C@@H]3CCN(C(=O)c4ccc(Oc5ccccc5)cc4)C3)c2)cn1` [Example 731, (R)-2-amino-5-(1-methyl-1H-pyrazol-4-yl)-N-(1-(4-phenoxybenzoyl)pyrrolidin-3-yl)nicotinamide] stands 0.1 to 1 µM.

With `Cn1cc(-c2cnc(N)c(C(=O)N[C@@H]3CCN(C(=O)c4cccc(Br)c4)C3)c2)cn1` [Example 733, (R)-2-amino-N-(1-(3-bromobenzoyl)pyrrolidin-3-yl)-5-(1-methyl-1H-pyrazol-4-yl)nicotinamide], at human MER (528-end), the IC50 is greater than 1 µM. Compound `Cn1cc(-c2cnc(N)c(C(=O)NC[C@H]3CCCN3C(=O)c3ccc(-c4ccccc4)cc3)c2)cn1` [Example 736, (R)—N-((1-([1,1′-biphenyl]-4-carbonyl)pyrrolidin-2-yl)methyl)-2-amino-5-(1-methyl-1H-pyrazol-4-yl)nicotinamide] showed an IC50 against human MER (528-end) greater than 1 µM.

For `Cn1cc(-c2cnc(N)c(C(=O)NC[C@@H]3CCN(C(=O)c4ccc(-c5ccccc5)cc4)C3)c2)cn1` [Example 738, (S)—N-((1-([1,1′-biphenyl]-4-carbonyl)pyrrolidin-3-yl)methyl)-2-amino-5-(1-methyl-1H-pyrazol-4-yl)nicotinamide], the IC50 against human MER (528-end) is greater than 1 µM.

Take `Cn1cc(-c2cnc(N)c(C(=O)NC[C@@H]3CCN(C(=O)c4cccc(-c5ccccc5)c4)C3)c2)cn1` [Example 739]: at human MER (528-end), the IC50 is greater than 1 µM. On to `Cn1cc(-c2cnc(N)c(C(=O)N[C@@H]3CCN(C(=O)c4ccc(-c5ccccc5)cc4)C3)n2)cn1` [Example 744, (R)—N-(1-([1,1′-biphenyl]-4-carbonyl)pyrrolidin-3-yl)-3-amino-6-(1-methyl-1H-pyrazol-4-yl)pyrazine-2-carboxamide], for which the IC50 against human MER (528-end) was 0.1 to 1 µM. Same read-out and setting: the result for `Nc1ncc(-c2ccccc2)cc1C(=O)N[C@@H]1CCN(C(=O)c2ccc(-c3ccc(F)cc3Cl)cc2)C1` [Example 775, (R)-2-amino-N-(1-(2′-chloro-4′-fluoro-[1,1′-biphenyl]-4-carbonyl)pyrrolidin-3-yl)-5-phenylnicotinamide] reads 0.1 to 1 µM. Take `CC(C)(c1ccc(-c2cnc(N)c(C(=O)N[C@@H]3CCN(C(=O)c4ccc(-c5ccccc5)cc4)C3)c2)cc1)N1CCN(S(=O)(=O)c2ccccc2[N+](=O)[O-])CC1` [Example 783, (R)—N-(1-([1,1′-biphenyl]-4-carbonyl)pyrrolidin-3-yl)-2-amino-5-(4-(2-(4-((2-nitrophenyl)sulfonyl)piperazin-1-yl)propan-2-yl)phenyl)nicotinamide]: the IC50 against human MER (528-end) fell in the range of 0.1 to 1 µM.

Turning to `Cn1cc(-c2cnc(N)c(C(=O)N[C@@H]3CCN(C(=O)c4ccc(-c5ccc(Oc6ccc(N)nc6)cc5)cc4)C3)c2)cn1` [Example 813, (R)-2-amino-N-(1-(4′-((6-aminopyridin-3-yl)oxy)-[1,1′-biphenyl]-4-carbonyl)pyrrolidin-3-yl)-5-(1-methyl-1H-pyrazol-4-yl)nicotinamide], the concentration for half-maximal inhibition (IC50) against human MER (528-end) was 0.1 to 1 µM. Still for that read-out and setting: under `Cn1cc(-c2cnc(N)c(C(=O)N[C@@H]3CCN(C(=O)c4ccc(-c5ccc(Oc6nn[nH]n6)cc5)cc4)C3)c2)cn1` [Example 814, (R)—N-(1-(4′-((2H-tetrazol-5-yl)oxy)-[1,1′-biphenyl]-4-carbonyl)pyrrolidin-3-yl)-2-amino-5-(1-methyl-1H-pyrazol-4-yl)nicotinamide] stands 0.1 to 1 µM. Same read-out and setting: under `Cn1cc(-c2cnc(N)c(C(=O)N[C@@H]3CCN(C(=O)c4ccc(/C=C/c5ccncc5)cc4)C3)c2)cn1` [Example 824, (R,E)-2-amino-5-(1-methyl-1H-pyrazol-4-yl)—N-(1-(4-(2-(pyridin-4-yl)vinyl)benzoyl)pyrrolidin-3-yl)nicotinamide] stands 0.1 to 1 µM. Same read-out and setting: the result for `Cn1cc(-c2cnc(N)c(C(=O)N[C@@H]3CCN(C(=O)c4ccc(/C=C/c5ccccn5)cc4)C3)c2)cn1` [Example 825, (R,E)-2-amino-5-(1-methyl-1H-pyrazol-4-yl)—N-(1-(4-(2-(pyridin-2-yl)vinyl)benzoyl)pyrrolidin-3-yl)nicotinamide] reads 0.1 to 1 µM; that for `C/C(=C\c1ccc(C(=O)N2CC[C@@H](NC(=O)c3cc(-c4cnn(C)c4)cnc3N)C2)cc1)c1ccccc1` [Example 826, (R,E)-2-amino-5-(1-methyl-1H-pyrazol-4-yl)-N-(1-(4-(2-phenylprop-1-en-1-yl)benzoyl)pyrrolidin-3-yl)nicotinamide], greater than 1 µM.

Compound `Cn1cc(-c2cnc(N)c(C(=O)N[C@@H]3CCN(C(=O)c4ccc(/C=C/C5CCNCC5)cc4)C3)c2)cn1` [Example 827, (R,E)-2-amino-5-(1-methyl-1H-pyrazol-4-yl)-N-(1-(4-(2-(piperidin-4-yl)vinyl)benzoyl)pyrrolidin-3-yl)nicotinamide] yielded an IC50 against human MER (528-end) greater than 1 µM.

Regarding `COC(=O)/C=C/c1ccc(C(=O)N2CC[C@@H](NC(=O)c3cc(-c4cnn(C)c4)cnc3N)C2)cc1` [Example 828, methyl (R,E)-3-(4-(3-(2-amino-5-(1-methyl-1H-pyrazol-4-yl)nicotinamido)pyrrolidine-1-carbonyl)phenyl)acrylate], at human MER (528-end), the IC50 is greater than 1 µM. Turning to `Cn1cc(-c2cnc(N)c(C(=O)N[C@@H]3C[C@H](C(=O)O)N(C(=O)c4ccc(-c5ccc(F)cc5Cl)cc4)C3)c2)cn1` [Example 839, (2R,4R)-4-(2-amino-5-(1-methyl-1H-pyrazol-4-yl)nicotinamido)-1-(2′-chloro-4′-fluoro-[1,1′-biphenyl]-4-carbonyl)pyrrolidine-2-carboxylic acid], the IC50 against human MER (528-end) is greater than 1 µM. Still for that read-out and setting: under “(R)-2-amino-N-(1-(3,5-dihydroxy-2-naphthoyl)pyrrolidin-3-yl)-5-(1-methyl-1H-pyrazol-4-yl)nicotinamide [Example 668]” stands greater than 1 µM.
